Laboratory results reported in patent US20240108734A1, “METHODS FOR TREATING AND AMELIORATING CANCER” (The Regents of the University of California, priority 2021, published 2024).
“Also recorded” adds a separate entry of the source.

How the values were obtained:
beta-catenin = assay: FACS analysis of activated beta-catenin in LSC engrafted mice; type: in vivo, human; details: LSC engrafted mice BM; compared with vehicle controls
Text: A lentiviral TCF/LEF reporter was utilized in human blast crisis CML cells, K562^1. Lentiviral pCDH backbone, ADAR1^WT, shControl, and shADAR1 K562 stable cell lines were transduced with pGreenFire1-TCF/LEF1 reporter (SBI) lentivirus for 72-hours and analyzed using CellTiter-Glo and One-Glo luciferase assays (Promega). Mean fluorescence intensity (MFI) of activated beta-catenin in human CD45^+ cells, HSCs (CD45^+CD34^+CD38^− Lin) and HPCs (CD45^+CD34^+[…] Lin) from engrafted mouse bone marrow and spleen was analyzed with a Miltenyi Biotec MACS Quant flow cytometer after staining with lineage, CD45, CD34 and CD38 (BD antibodies) as well as LIVE/DEAD stain, followed by 1% paraformaldehyde fixation, permeabilization with saponin, and staining with an anti-active beta-catenin antibody (Millipore cat #05-665, and BD custom conjugation) (see Supplementary Appendix).
To assess WNT/beta-catenin activation in response to ADAR1 upregulation, a lentiviral TCF/LEF reporter was utilized in human blast crisis CML cells, K562^26. […] A minimum of 50,000 cells were plated in duplicate, lysed according to the manufacturer's protocol, and measured using preloaded protocols on a Promega GloMax Discover Microplate Reader. One-Glo luciferase readouts were normalized to corresponding CellTiter-Glo values. […]

[1] = tested on: MF CD34+ cells engrafted in NSG-SGM3 mice; assay: Humanized MF MPN-SPC (pre-LSC) mouse model; type: in vivo
Text: (§1) Human CD34^+ cells isolated from MF and BC CML samples (Table S2, illustrated as FIG. 11) were transplanted intravenously into adult NSG-SGM3 (expressing human IL-3, GM-CSF and SCF) mice following 300 cGy of irradiation or intrahepatically into neonatal RAG2^−/− yc^−/− mice, respectively^27,32.
(§2) Human CD34^+ cells isolated from MF and BC CML (Table S2) samples were transplanted intravenously into adult NSG-SGM3 (expressing human IL-3, GM-CSF and SCF) mice following
(§3) 300 cGy of irradiation or intrahepatically into newborn RAG2^−/−[…]c^−/− mice^28,32,34. Post-transplantation (13 to 16 weeks), bone marrow and spleen were collected and analyzed by FACS^32. Mice were treated with vehicle, mismatch or imetelstat at varying doses. Also, MF CD34^+ cells were transduced with pCDH lentivirus control or ADAR1-OE lentivirus with a MOI of 100 for 48 hours, followed by intravenous transplantation into NSG-SGM3 mice to assess the impact of ADAR1 overexpression on MF engraftment.
(§4) FIG. 4A. A schema of humanized BC CML LSC and MF SPC mouse models. Human CD34^+ cells sorted from either BC CML or myelofibrosis patient blood or marrow were transplanted into neonatal Rag2^−/−[…]c^−/− mice or intravenously transplanted into adult NSG-S mice. Engrafted BC CML or MF mouse models were randomized into (1) vehicle control, (2) mismatch control, and (3) imetelstat treatment groups (n≥3/group). Bone marrow (BM) and spleen were collected when completing the dosing plan, and the single-cell suspension was analyzed by FACS.
FIG. 4B. Bone marrow from each treatment group was collected for histological examination and FACS analysis. Left: Photomicrogaphs depict reticulin staining, DAPI staining, human CD45^+ expression and merged DAPI and CD45 images in bone marrow collected from no transplant, vehicle, and mismatch controls as well as from imetelstat treated myelofibrosis (MF) mouse models. Right: FACS analysis plots depicting forward scatter (FSC, y-axis) and human CD45 engraftment (x-axis) in no transplant, vehicle, and mismatch controls as well as imetelstat treated MF mouse models.

[2] = tested on: BC CML CD34+ cells engrafted in RAG2-/-yc-/- mice; assay: Humanized BC CML LSC mouse model; type: in vivo
Text: as §1, §2, §3, §4

[3] = 30 mg/kg imetelstat three times a week for 4 weeks, 5 different BC CML, vs vehicle controls

**Q.** Which results are given for imetelstat?
**A.** activated beta-catenin expression / activity by FACS (beta-catenin): significant reduction; also recorded: significantly reduced; progenitor (CD34+CD38+Lin-) engraftment by FACS ([1]; MF318 mouse BM, compared to control treated mice, p<0.04): lower; human CD45+ engraftment by FACS ([1]; MF mouse BM, compared to control treated mice, p<0.014): lower; human CD45+ leukemic cell engraftment by confocal immunofluorescence microscopy ([1]; bone marrow, vs vehicle and mismatch controls): lower; splenomegaly ([1]; compared to control treated mice): decreased splenomegaly; proliferation of human CD45+ cells in bone marrow and spleen ([1]; pre-LSC mouse models from 4 different MF samples, vs vehicle controls, p<0.01, t test): significant reduction; reticulin fibrosis in bone marrow (immunohistochemistry) ([1]; vs vehicle and mismatch controls): less reticulin fibrosis; human CD45+ cell proliferation / engraftment [2, 3]: significant reduction; also recorded: reduced; malignant progenitor proliferation / engraftment [2, 3]: significant reduction; also recorded: reduced; splenomegaly ([2]; BC CML xenograft): decreases splenomegaly
